Measurements taken from patent US20230404985A1, “METHODS OF TREATING TUMORS AND CANCERS HAVING DYSREGULATED WNT SIGNALING PATHWAYS” (ICAHN SCHOOL OF MEDICINE AT MOUNT SINAI, priority 2020, published 2023).

System: cytoplasmic kinases including BRAF and p38α/β
Experiment: NanoBRET live cell target engagement, cytoplasmic kinases
Type: cell-based
Conditions: relative to sorafenib and regorafenib
Protocol: For NanoBRET™ dose response experiments, SNU398 cells were transfected with a MAPK14-NanoLuc© Fusion Vector according to the Promega NanoBRET™ TE Intracellular Kinase Assay protocol. Following overnight transfection, cells were trypsinized and redistributed on a white 96-well plate (20,000 cells per well). Cells were incubated with 1 μM of K-4 Tracer and sorafenib or WNTinib at doses ranging from 0.02→20 μM for two hours. After drug incubation, plates were equilibrated to room temperature for 15 minutes, and NanoBRET™ Nano-Glo© Substrate and Extracellular NanoLuc© Inhibitor were added to wells. Bioluminescent donor (NanoLuc© luciferase) and fluorescent acceptor (Tracer) emission were measured on a GloMax plate reader at 450 and 600 nm, respectively. BRET ratio is reported as acceptor signal divided by the donor signal for each well. Conditions were evaluated in technical triplicates for each experiment, and experiments were repeated in biological duplicates. […] The plate was continuously read on a GloMax plate reader for 2 hours to record BRET signal from the association of the K-4 Tracer with the MAPK14-NanoLuc© Fusion Vector. Conditions were evaluated in technical triplicates, and experiments were repeated in biological duplicates.
In order to characterize the direct targets of WNTinib, kinome selectivity profiles were first assessed by in vitro kinase assays. […]

Compound: CNC(=O)c1cc(Oc2ccc(NC(=O)Nc3ccc(C(F)(F)C(F)(F)F)cc3)c(F)c2)ccn1 [WNTinib, 4-(3-fluoro-4-(3-(4-(perfluoroethyl)phenyl)ureido)phenoxy)-N-methylpicolinamide]
- target engagement potency on cytoplasmic kinases BRAF and p38α/β: markedly less potent than sorafenib and regorafenib
